Test results: a compilation of properties of binary mixtures (doi:10.1007/s10953-021-01127-x)

Assay: xn = mol fraction of the nth substance listed
Details: 100 kPa

CCCC[n+]1ccn(C)c1C.F[B-](F)(F)F + O=C1CCCN1
speed of sound [m/s]
Details | 293.15 K | 298.15 K | 303.15 K | 308.15 K
x1 = 0.0698 | 1659.6 | 1644.9 | 1629.3 | 1615.7
x1 = 0.1052 | – | 1649.6 | 1634.8 | 1621.9
x1 = 0.1469 | – | – | 1640.6 | 1628.7
x1 = 0.1948 | 1670.6 | 1659.8 | – | 1634.9
x1 = 0.2495 | 1672.1 | 1662.8 | – | 1638.3
x1 = 0.2945 | 1671.9 | 1663.3 | 1652 | 1640.1
x1 = 0.3428 | 1670.8 | 1662 | 1651.2 | 1639.9
x1 = 0.3964 | 1666.8 | 1658.3 | – | 1637.2
x1 = 0.4419 | 1661.9 | – | 1643.3 | 1633
x1 = 0.5004 | 1653.8 | 1645.7 | 1635.6 | 1625.8
x1 = 0.5563 | 1645.8 | 1637.1 | 1626.5 | 1617.3
x1 = 0.5949 | 1640.2 | 1630.9 | 1620.4 | 1611.1
x1 = 0.6419 | – | 1623.6 | 1613.1 | 1603.7
x1 = 0.6984 | 1626.6 | 1616.1 | 1605.4 | 1595.6
x1 = 0.7521 | 1622.1 | – | 1599.8 | 1589.4
x1 = 0.8031 | – | 1608.8 | 1596.7 | 1586.2
x1 = 0.8549 | 1623.2 | 1610.3 | 1597.8 | 1586.8
x1 = 0.9021 | – | 1615.8 | 1603.4 | 1591.6
x1 = 0.9564 | 1642.5 | 1628.7 | – | 1603.7
